What was measured:
[1] = tested on: IPOSS (annual morningglory); assay: Pre-emergence herbicidal activity, warm season; format: in vivo, Ipomoea spp.; settings: Ipomoea, pre-emergence application, read-out: Percent inhibition, weed IPOSS
Description: (§1) Tables 5 to 8 summarize results of tests conducted as described below to determine the pre-emergence herbicidal activity, in the form of a GR80 value, of illustrative compounds of this invention. […] Compounds of the invention were typically applied at rates of 300, 100, 30, and 10 g/ha. Where herbicidal activity was evident but 80% inhibition was not achieved at the highest rate tested, an asterisk (*) is shown in the following tables.
(§2) The pre-emergence tests were conducted by the following procedure. Topsoil was sieved to pass through a 1.27 cm screen. Fertilizer was added to the topsoil and the mixture was then sterilized by heating. The topsoil mixture was placed in a pot and compacted to a depth of 1.0 to 1.25 cm from the top of the pot. Seeds of each of several monocotyledonous and dicotyledonous annual plant species were placed on top of the soil. Additional soil was subsequently placed over the seeds to level-fill the pot. A known amount of each test compound dissolved or suspended in an appropriate organic solvent was diluted with a 50:50 mix of acetone and water and applied to the surface of the soil. After treatment the plants were placed in a greenhouse where they received 0.64 cm of overhead irrigation. All subsequent watering consisted of a light overhead mist and/or subirrigation as needed for germination and growth. Tables 5 and 6 below relate to warm season plant species which were placed after pre-emergence treatment in a greenhouse with a 30/21° C. day/night temperature regime. Tables 7 and 8 below relates to cool season plant species placed after pre-emergence treatment in a greenhouse or growth chamber with an 18/13° C. day/night temperature regime.
(§3) Approximately 14 days after planting and treating, the plants were observed and herbicidal efficacy recorded as percent inhibition by comparison with untreated plants.
(§4) The plant species usually regarded as weeds which were utilized in the tests are identified in the tables below according to the following legend, in which “d” indicates a dicotyledonous species and “m” a monocotyledonous species. All monocotyledonous species included in the tests herein are grasses.

XANST (cocklebur) = assay: Pre-emergence herbicidal activity, warm season; format: in vivo; settings: Xanthium strumarium, pre-emergence application, read-out: Percent inhibition, weed XANST
Description: as §1, §2, §3, §4

SEBEX [2] = assay: Pre-emergence herbicidal activity, warm season (selectivity test, Table 15); format: in vivo; settings: pre-emergence application, read-out: Percent inhibition, weed SEBEX
Description: as §2, §3
(§5) Additional pre-emergence and PPI tests were conducted by the procedures described above, on warm and cool season weed species in the presence of crop species, to assess herbicidal selectivity. Crop species included in warm season tests were corn (Zea mays, ZEAMX), rice (Oryza sativa, ORYSA) and soybean (Glycine max, GLYMX). Crop species included in cool season tests were wheat (Triticum aestivum, TRZAW), barley (Hordeunm vulgare, HORVX) and oilseed rape (Brassica napus, BRSNS).
(§6) Tables 15 and 16 relate to pre-emergence and PPI tests respectively on warm season species. Table 17 relates to pre-emergence tests on cool season species.

AVEFA (wild oat) = assay: Pre-emergence herbicidal activity, cool season; format: in vivo, Avena fatua; settings: GR80 = lowest tested rate (300, 100, 30, 10 g/ha) with 80% or greater inhibition; approx. 14 days after treating; 18/13° C.
How it was run: (§7)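 GR80 values derive from percent inhibition relative to untreated plants, read roughly 14 days after sowing and pre-emergence soil-surface treatment (compound in 50:50 acetone/water; rates typically 10, 30, 100, 300 g/ha). Warm-season weeds grew at 30/21° C day/night, cool-season ones at 18/13° C; an asterisk marks activity without reaching 80% at the highest rate.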

POROL (common purslane) = assay: Pre-plant incorporated (PPI) herbicidal activity, warm season; format: in vivo, Portulaca oleracea; settings: GR80 = lowest tested rate with 80% or greater inhibition, approx. 14 days after treating, 30/21° C.
Description: (§8) In another set of tests, the pre-plant incorporated (PPI) activity of compounds of this invention was evaluated on the same species as for the pre-emergence tests described above. In the PPI tests the following procedure, designed to simulate PPI application, was used.
(§9) A pre-prepared topsoil mixture (described above) was placed in a pot and compacted to a depth of 1.0 to 1.25 cm from the top of the pot. Seeds of each of several monocotyledonous and dicotyledonous annual plant species were placed on top of the soil. A sufficient quantity of soil to cover the seeds and level fill the pot was weighed into an open container. A known amount of the test compound was dissolved or suspended in an organic solvent and applied by spraying to this cover soil. The cover soil was thoroughly mixed to distribute the test compound throughout the cover soil, and was then applied as a cover layer over the seeds. Untreated soil was used as a cover layer for control pots. After treatment the plants were placed in a greenhouse where they received 0.64 cm of overhead irrigation. All subsequent watering consisted of a light overhead mist and/or subirrigation as needed for germination and growth. Tables 9 and 10 below relate to warm season plant species which were placed after pre-emergence treatment in a greenhouse with a 30/21° C. day/night temperature regime. Tables 11 and 12 below relates to cool season plant species placed after pre-emergence treatment in a greenhouse or growth chamber with an 18/13° C. day/night temperature regime. Only the compounds of Examples 1, 6, 8, 11, 13 and 15-20 were included in PPI tests.
as §3

[3] = tested on: AGRRE (quackgrass (seedling)); assay: Pre-emergence herbicidal activity, cool season; format: in vivo, Elymus repens; settings: GR80 = lowest tested rate (300, 100, 30, 10 g/ha) with 80% or greater inhibition; approx. 14 days after treating; 18/13° C.
How it was run: as §7

CONAR (field bindweed) [4] = assay: Pre-plant incorporated (PPI) herbicidal activity, warm season; format: in vivo, Convolvulus arvensis; settings: GR80 = lowest tested rate with 80% or greater inhibition, approx. 14 days after treating, 30/21° C.
Description: as §8, §9, §3

BROTE (downy brome) = assay: Pre-emergence herbicidal activity, cool season; format: in vivo, Bromus tectorum; settings: GR80 = lowest tested rate (300, 100, 30, 10 g/ha) with 80% or greater inhibition; approx. 14 days after treating; 18/13° C.
How it was run: as §7

SEBEX [5] = assay: Pre-plant incorporated (PPI) herbicidal activity, warm season; format: in vivo; settings: PPI application, read-out: Percent inhibition SEBEX
Description: as §5

corn (ZEAMX) = assay: Selectivity test, pre-emergence, warm season crop; format: in vivo; settings: Zea mays, pre-emergence application, read-out: Percent inhibition, crop ZEAMX
Description: as §2, §3, §5, §6

[6] = tested on: IPOSS (annual morningglory); assay: Pre-plant incorporated (PPI) herbicidal activity, warm season; format: in vivo, Ipomoea spp.; settings: Ipomoea, PPI application, read-out: Percent inhibition IPOSS
Description: as §8, §9, §3

CONAR (field bindweed) [7] = assay: Pre-emergence herbicidal activity, warm season; format: in vivo, Convolvulus arvensis; settings: GR80 = lowest tested rate (300, 100, 30, 10 g/ha) with 80% or greater inhibition; approx. 14 days after treating; 30/21° C.
How it was run: as §7

Row | Compound | inhibition at 10 g/ha [1] | inhibition at 30 g/ha [1] | inhibition at 100 g/ha [1] | inhibition at 300 g/ha [1] | inhibition at 900 g/ha [1] | inhibition at 10 g/ha (XANST (cocklebur)) | inhibition at 30 g/ha (XANST (cocklebur)) | inhibition at 10 g/ha (SEBEX [2]) | inhibition at 30 g/ha (SEBEX [2]) | inhibition at 100 g/ha (SEBEX [2]) | inhibition at 300 g/ha (SEBEX [2]) | inhibition at 900 g/ha (SEBEX [2]) | PPI activity (GR80) POROL (POROL (common purslane)) | PPI activity (GR80) CONAR (CONAR (field bindweed) [4]) | inhibition at 10 g/ha (SEBEX [5]) | inhibition at 30 g/ha (SEBEX [5]) | inhibition at 300 g/ha (SEBEX [5]) | inhibition at 900 g/ha (SEBEX [5]) | inhibition at 10 g/ha (corn (ZEAMX)) | inhibition at 30 g/ha (corn (ZEAMX)) | also measured
1 | CCN(CC)C(=O)n1cnc(S(=O)(=O)C(F)(F)Br)n1 [Example 1, 3-(bromodifluoromethylsulfonyl)-1-(N,N-diethylcarbamoyl)-1,2,4-triazole] | 0% | 0% | 0% | 0% | 0% | 0% | 0% | 0% | 0% | 0% | 0% | 0% | 30 g/ha | 100 g/ha | 0% | 0% | 0% | 20% | 0% | 0% | Pre-emergence activity (GR80) AVEFA (AVEFA (wild oat)): 100 g/ha; Pre-emergence activity (GR80) AGRRE [3]: 300 g/ha; Pre-emergence activity (GR80) BROTE (BROTE (downy brome)): 300 g/ha; inhibition at 100 g/ha (SEBEX [5]; 100 g/ha): 0%; inhibition at 100 g/ha (corn (ZEAMX)): 0%; inhibition at 300 g/ha (corn (ZEAMX)): 0%; inhibition at 900 g/ha (corn (ZEAMX)): 10%; melting point: 74 to 75 °C; inhibition at 10 g/ha ([6]; 10 g/ha): 0%; inhibition at 300 g/ha [6]: 60%; inhibition at 900 g/ha [6]: 80%; Pre-emergence activity (GR80) CONAR (CONAR (field bindweed) [7]): 300 g/ha
2 | CCN(CC)C(=O)n1cnc(S(=O)(=O)C(F)F)n1 [Example 15, 1-(N,N-diethylcarbamoyl)-3-(difluoromethylsulfonyl)-1,2,4-triazole] | 0% | 0% | 0% | 0% | 0% | 0% | 0% | 0% | 0% | 0% | 0% | 35% | 100 g/ha | * (activity observed, at least at highest rate, but <80% inhibition) | 0% | 0% | 0% | 50% | 0% | 0% | inhibition at 100 g/ha (XANST (cocklebur); 100 g/ha): 0%; inhibition at 300 g/ha (XANST (cocklebur); 300 g/ha): 0%; inhibition at 100 g/ha (corn (ZEAMX)): 0%; inhibition at 300 g/ha (corn (ZEAMX)): 0%; inhibition at 900 g/ha (corn (ZEAMX)): 0%; melting point: 58 to 59 °C; inhibition at 30 g/ha ([6]; 30 g/ha): 0%; inhibition at 300 g/ha [6]: 20%; inhibition at 900 g/ha [6]: 20%

From patent US6461997B1, “Triazole sulfones having herbicidal activity” (Monsanto Technology LLC, priority 1999, dated 2002)
